Read-outs that look alike come from different tables or passages of the source.
What was measured:
[1] = system: peripheral blood mononuclear cell (PBMC); test: Peripheral blood mononuclear cell assay; type: cell-based; conditions: 1h with compound, washed, 15 hour incubation
Method: Selected compounds were tested in an in vitro peripheral blood mononuclear cell (PBMC) assay. Freshly isolated PBMCs were seeded into U-shaped shaped 96-well plates at desity 500,000 cells per well in 50 µl of RPMI 1640 medium supplemented with 10% heat inactivated FBS. Serially dilluted tested compounds were added to wells in 50 µl of cultivation medium and cell were incubated with compounds for 1h at 37° C. with 5% CO2. Plates with cells were then spun 500 g for 5 minutes and medium was removed. Cells were washed twice with the cell culture medium by the use of centrifugation and gently resuspended in 100 µl medium without compounds. After 15 hour incubation at 37° C. with 5% CO2, the cell culture medium was collected and the levels of interferon-alpha (INF-α), interferon-gamma (INF-γ) and tumor necrosis factor-alpha (TNF-α) were determined with ProcartaPlex Assays (ThermoFisher, Waltham, USA) and MAGPIX System (Merck KGaA, Darmstadt, Germany).

WT STING = WT STING (Homo sapiens, UniProt Q86WV6, H232R); test: 293T WT STING standard reporter assay; type: cell-based; conditions: 293T wtSTING-FL cells; 7 hours with compound, no digitonin; ISRE firefly luciferase reporter
Excerpt: Two complementary oligonucleotides of the sequence […] […] […] […] […] The oligonucleotides were mixed in equal molar amounts, hybridized, and cleaved by restriction endonucleases HindIII (cat. #. R0104S, NEB, Ipswich, USA) and BglII (cat. # R0144S, NEB, Ipswich, USA). Ultimately, they were ligated into plasmid pGL4.27 (cat. # E6651, Promega, Madison, USA) linearized with the same enzymes. As result the sequence with four ISRE sites was placed upstream of the minimum promoter of firefly luciferase reporter gene.
After 5 minutes incubation at room temperature (RT), 250 µL of the mixture was added dropwise to the cells in one well. Cells were incubated 36 hours at 37° C. with 5% CO2, and then detached with 0.05% Trypsin and 0.22 g/L EDTA (both cat. # L0941, Biowest, Riverside, USA).
Transfected cells were seeded onto poly-D-lysine coated six well plates at density 50,000 cells per 1 cm^2 in DMEM medium with high glucose containing 10% heat inactivated FBS, 30 µg/mL blasticidin (cat. # ant-bl-05, InvivoGen, San Diego, USA), 0.06 mg/ml Penicillin G and 0.1 mg/ml Streptomycin Sulfate (both cat. #. L0018, Biowest, Riverside, USA). The medium was replenished every 3 - 4 days until visible colonies of cells resistant to blasticidin were formed.
Blasticidin resistant cells stably expressing WT STING were further transfected with […] plasmid following the same procedure as described above. […] Homogeneous culture of stably double transfected cells was prepared by limiting dilution of cells in 96 well plates and wells with cells were selected that originated from a single cell.
The medium was removed next day and three-fold serial dilutions of compounds in 100 µl medium were added to the cells. The plates with cells were incubated for 7 hours at 37° C. with 5% CO2. After 50 µl of the medium was removed, 30 µl of ONE-Glo^Tm Luciferase Assay System reagent (cat. # E6120, Promega, Madison, USA) was added to each well and luminescence was read on Synergy H1 (Biotek, Winooski, USA).

[2] = PBMC, IFN-α level in medium, read-out: PBMC EC50 IFN-α
[3] = PBMC, IFN-γ level in medium, read-out: PBMC EC50 IFN-γ
[4] = PBMC, TNF-α level in medium, read-out: PBMC EC50 TNF-α
[5] = IFN-α level in medium, read-out: PBMC EC50 IFN-α
[6] = TNF-α level in medium, read-out: PBMC EC50 TNF-α

Chain of WT STING (Q86WV6 whole entry H232R): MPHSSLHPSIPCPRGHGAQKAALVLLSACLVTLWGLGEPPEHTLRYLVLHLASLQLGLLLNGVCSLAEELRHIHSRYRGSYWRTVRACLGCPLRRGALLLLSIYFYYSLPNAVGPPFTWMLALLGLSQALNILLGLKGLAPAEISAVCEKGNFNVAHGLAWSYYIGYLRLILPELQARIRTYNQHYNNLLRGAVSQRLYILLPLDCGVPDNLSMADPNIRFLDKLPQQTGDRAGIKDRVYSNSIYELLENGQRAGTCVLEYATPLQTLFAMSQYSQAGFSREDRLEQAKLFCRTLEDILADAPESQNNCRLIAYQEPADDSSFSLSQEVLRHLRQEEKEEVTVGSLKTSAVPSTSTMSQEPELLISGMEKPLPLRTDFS

Compound	EC50 (WT STING) [nM]	further results
CC1(C(=O)OCOP2(=O)/C=C/[C@H]3O[C@@H](n4cnc5c(N)ncnc54)[C@H](F)[C@@H]3OP(=O)(OCOC(=O)C3(C)CCCCC3)OC[C@H]3O[C@@H](n4cnc5c(N)ncnc54)[C@H](F)[C@@H]3O2)CCCCC1 (single isomer, unassigned) [Compound 82a]	200	–
CC(C)(C)C(=O)OCOP1(=O)/C=C/[C@H]2O[C@@H](n3cnc4c(N)ncnc43)C[C@@H]2OP(=O)(OCOC(=O)C(C)(C)C)OC[C@H]2O[C@@H](n3cnc4c(N)ncnc43)[C@H](F)[C@@H]2O1 (single isomer, unassigned) [Compound 87c]	260	–
{[(1R,6R,8R,9R,10R,13E,15R,17R,18R)-8,17-bis(6-amino-9H-purin-9-yl)-9,18-difluoro-3,12-dioxo-3-({[(propan-2-yloxy)carbonyl]oxy}methoxy)-2,4,7,11,16-pentaoxa-3λ^5,12λ^5- diphosphatricyclo[13.3.0.0^6,^10]octadec-13-en-12-yl]oxy}methyl propan-2-yl carbonate [Compound 81b]	1200	–
{[(1R,6R,8R,9R,10R,13E,15R,17R,18R)-8,17-bis(6-amino-9H-purin-9-yl)-9,18-difluoro-3,12-dioxo-3-({[(propan-2-yloxy)carbonyl]oxy}methoxy)-2,4,7,11,16-pentaoxa-3λ^5,12λ^5- diphosphatricyclo[13.3.0.0^6,^10]octadec-13-en-12-yl]oxy}methyl propan-2-yl carbonate [Compound 81c]	122	EC50 [1, 5]: 600 nM; EC50 ([1]; IFN-γ level in medium, read-out: PBMC EC50 IFN-γ): 1300 nM; EC50 [1, 6]: 250 nM
CC(C)(C)C(=O)OCOP1(=O)/C=C/[C@H]2O[C@@H](n3cnc4c(N)ncnc43)C[C@@H]2OP(=O)(OCOC(=O)C(C)(C)C)OC[C@H]2O[C@@H](n3cnc4c(N)ncnc43)[C@H](F)[C@@H]2O1 (single isomer, unassigned) [Compound 87b]	670	–
CCC(C)(C)C(=O)OCOP1(=O)/C=C/[C@H]2O[C@@H](n3cnc4c(N)ncnc43)[C@H](F)[C@@H]2OP(=O)(OCOC(=O)C(C)(C)CC)OC[C@H]2O[C@@H](n3cnc4c(N)ncnc43)[C@H](F)[C@@H]2O1 (single isomer, unassigned) [Compound 84a]	150	–
CC(C)(C)C(=O)OCOP1(=O)/C=C/[C@H]2O[C@@H](n3cnc4c(N)ncnc43)C[C@@H]2OP(=O)(OCOC(=O)C(C)(C)C)OC[C@H]2O[C@@H](n3cnc4c(N)ncnc43)[C@H](F)[C@@H]2O1 (single isomer, unassigned) [Compound 87a]	12100	–
CC(C)(C)C(=O)OCOP1(=O)/C=C/[C@H]2O[C@@H](n3cnc4c(N)ncnc43)[C@H](F)[C@@H]2OP(=O)(OCOC(=O)C(C)(C)C)OC[C@H]2O[C@@H](n3cnc4c(N)ncnc43)[C@H](F)[C@@H]2O1 (single isomer, unassigned) [Compound 80a]	84	–
CC(C)OC(=O)OCOP1(=O)/C=C/[C@H]2O[C@@H](n3cnc4c(N)ncnc43)[C@H](F)[C@@H]2OP(=O)(OCOC(=O)OC(C)C)OC[C@H]2O[C@@H](n3cnc4c(N)ncnc43)[C@H](F)[C@@H]2O1 (stereo partly drawn) [Compound 81a, {[(1R,6R,8R,9R,10R,13E,15R,17R,18R)-8,17-bis(6-amino-9H-purin-9-yl)-9,18-difluoro-3,12-dioxo-3-({[(propan-2-yloxy)carbonyl]oxy}methoxy)-2,4,7,11,16-pentaoxa-3λ^5,12λ^5-diphosphatricyclo[13.3.0.0^6,^10]octadec-13-en-12-yl]oxy}methyl propan-2-yl carbonate]	9500	–

Compounds with a lower EC50 (WT STING), results first:

EC50 (WT STING) [nM]	Compound	further results
80	CC1(C(=O)OCOP2(=O)/C=C/[C@H]3O[C@@H](n4cnc5c(N)ncnc54)[C@H](F)[C@@H]3OP(=O)(OCOC(=O)C3(C)CCCCC3)OC[C@H]3O[C@@H](n4cnc5c(N)ncnc54)[C@H](F)[C@@H]3O2)CCCCC1 (single isomer, unassigned) [Compound 82b]	–
23	CCCCCCCC(=O)OCOP1(=O)/C=C/[C@H]2O[C@@H](n3cnc4c(N)ncnc43)[C@H](F)[C@@H]2OP(=O)(OCOC(=O)CCCCCCC)OC[C@H]2O[C@@H](n3cnc4c(N)ncnc43)[C@H](F)[C@@H]2O1 (single isomer, unassigned) [Compound 83a]	–
22	CC(C)(C)C(=O)OCOP1(=O)/C=C/[C@H]2O[C@@H](n3cnc4c(N)ncnc43)[C@H](F)[C@@H]2OP(=O)(OCOC(=O)C(C)(C)C)OC[C@H]2O[C@@H](n3cnc4c(N)ncnc43)[C@H](F)[C@@H]2O1 (single isomer, unassigned) [Compound 80b]	–
15	CC1(C(=O)OCOP2(=O)/C=C/[C@H]3O[C@@H](n4cnc5c(N)ncnc54)[C@H](F)[C@@H]3OP(=O)(OCOC(=O)C3(C)CCCCC3)OC[C@H]3O[C@@H](n4cnc5c(N)ncnc54)[C@H](F)[C@@H]3O2)CCCCC1 (single isomer, unassigned) [Compound 82c]	EC50 [1, 2]: 100 nM; EC50 [1, 3]: 70 nM; EC50 [1, 4]: 60 nM
12	CC(C)(C)C(=O)OCOP1(=O)/C=C/[C@H]2O[C@@H](n3cnc4c(N)ncnc43)[C@H](F)[C@@H]2OP(=O)(OCOC(=O)C(C)(C)C)OC[C@H]2O[C@@H](n3cnc4c(N)ncnc43)[C@H](F)[C@@H]2O1 (single isomer, unassigned) [Compound 80c]	EC50 [1, 2]: 100 nM; EC50 [1, 3]: 180 nM; EC50 [1, 4]: 100 nM
10	CCC(C)(C)C(=O)OCOP1(=O)/C=C/[C@H]2O[C@@H](n3cnc4c(N)ncnc43)[C@H](F)[C@@H]2OP(=O)(OCOC(=O)C(C)(C)CC)OC[C@H]2O[C@@H](n3cnc4c(N)ncnc43)[C@H](F)[C@@H]2O1 (single isomer, unassigned) [Compound 84b]	EC50 [1, 5]: 80 nM; EC50 [1, 6]: 70 nM; EC50 [1, 3]: 60 nM
10	CC(C)(C)C(=O)OCOP1(=O)/C=C/[C@H]2O[C@@H](n3cnc4c(N)ncnc43)[C@H](F)[C@@H]2OP(=O)(OCOC(=O)C(C)(C)C)OC[C@H]2O[C@@H](n3cnc4c(N)ncnc43)C[C@@H]2O1 (stereo partly drawn) [Compound 86, {[(1R,6R,8R,10S,13E,15R,17R,18R)-8,17-bis(6-amino-9H-purin-9-yl)-3-{[(2,2-dimethylpropanoyl)oxy]methoxy}-18-fluoro-3,12-dioxo-2,4,7,11,16-pentaoxa-3λ^5,12λ^5-diphosphatricyclo[13.3.0.0^6,^10]octadec-13-en-12-yl]oxy}methyl 2,2-dimethylpropanoate]	EC50 [1, 2]: 600 nM; EC50 [1, 3]: 1600 nM; EC50 [1, 4]: 800 nM
3	CCCCCCCC(=O)OCOP1(=O)/C=C/[C@H]2O[C@@H](n3cnc4c(N)ncnc43)[C@H](F)[C@@H]2OP(=O)(OCOC(=O)CCCCCCC)OC[C@H]2O[C@@H](n3cnc4c(N)ncnc43)[C@H](F)[C@@H]2O1 (single isomer, unassigned) [Compound 83c]	–
3	CCCCCCCCCCCC(=O)OCOP1(=O)/C=C/[C@H]2O[C@@H](n3cnc4c(N)ncnc43)[C@H](F)[C@@H]2OP(=O)(OCOC(=O)CCCCCCCCCCC)OC[C@H]2O[C@@H](n3cnc4c(N)ncnc43)[C@H](F)[C@@H]2O1 (single isomer, unassigned) [Compound 85b]	–
3	CCCCCCCC(=O)OCOP1(=O)/C=C/[C@H]2O[C@@H](n3cnc4c(N)ncnc43)[C@H](F)[C@@H]2OP(=O)(OCOC(=O)CCCCCCC)OC[C@H]2O[C@@H](n3cnc4c(N)ncnc43)[C@H](F)[C@@H]2O1 (single isomer, unassigned) [Compound 83b]	–
0.4	CCCCCCCCCCCC(=O)OCOP1(=O)/C=C/[C@H]2O[C@@H](n3cnc4c(N)ncnc43)[C@H](F)[C@@H]2OP(=O)(OCOC(=O)CCCCCCCCCCC)OC[C@H]2O[C@@H](n3cnc4c(N)ncnc43)[C@H](F)[C@@H]2O1 (single isomer, unassigned) [Compound 85a]	EC50 [1, 2]: 20 nM; EC50 [1, 3]: 10 nM; EC50 [1, 4]: 20 nM

Source: patent publication US20230303613A1, “3′3′ CYCLIC DINUCLEOTIDES WITH AN ALKENYLENE” (Institute of Organic Chemistry and Biochemistry AS CR, v.v.i, priority 2020, published 2023)
